Source: publication PMC9686674, “Potent Anti-Inflammatory Effects of a Helix-to-Helix Peptide against Pseudomonas aeruginosa Endotoxin-Mediated Sepsis” (Antibiotics, 2022)
Ends that are not written are not given here.

Experiments:
[1] = tested on: Escherichia coli, Pseudomonas aeruginosa, Staphylococcus aureus, and Listeria monocytogenes; assay type: cell-based
Method: The antibacterial activity was examined using a microdilution assay with Eschrichia coli (ATCC 25922), P. aeruginosa (ATCC 15692) and Staphylococcus aureus (ATCC 25923), which were obtained from the American Type Culture Collection. Listeria monocytogenes (KCTC 3710) was obtained from the Korean Collection for Type Cultures. Cell survival was investigated using the 3-(4,5-dimethylthiazol-2-yl)-2,5-diphenyltetrazolium bromide assay in RAW264.7 cells. The assay was performed as described previously.

[2] = tested on: Balb/c mice lungs; assay: LPS-induced acute lung injury (ALI) in mice; assay type: in vivo; conditions: 1 mg/kg intratracheal, 3 days, histology
Method: Figure 8 In vivo anti-inflammatory effects of peptides in acute lung injury. Pseudomonas aeruginosa LPS (500 ng) was intratracheally instilled in mice lungs. One hour after instillation, peptides were intratracheally administered, followed by monitoring for 3 days. Lungs collected from the euthanized mice were digitally visualized and tissues were stained using eosin/alcian blue, H&E, PE-conjugated TNF-α, and IL6 antibody. Bar is 50 µm.
P. aeruginosa LPS (500 ng) in 50 µL PBS was intratracheally instilled into seven-week-old female Balb/c mice. One hour after exposure, each peptide was intratracheally administered at the indicated dose in 50 µL PBS. Control mice were injected with 50 µL PBS without the peptides. Mice were monitored for signs of morbidity for 3 days after LPS exposure. Mice were euthanized using CO2 inhalation, and the lung tissues were excised and fixed in 4% paraformaldehyde. The fixed tissues were dehydrated using a series of ethanol solutions (50−100%) and embedded in paraffin. The tissues embedded with paraffin were sectioned with a thickness of 5 µm (Leica microtome, Deerfield, MA, USA). Histopathology of the lung tissues was performed using alcian blue and eosin and H&E staining. […] The stained tissue sections were observed under a fluorescence microscope (OPTINIT KCS3-160S; Korea Lab Tech, Seongnam, Gyeonggi-do, Republic of Korea).

[3] = tested on: RAW 264.7 cells; assay: LPS-stimulated ROS generation (H2DCFDA fluorescence microscopy); assay type: cell-based, murine; conditions: RAW 264.7, peptides 8 µM pre-incubated 30 min, P. aeruginosa LPS 100 ng/mL, 24 h
Method: Figure 3 CD spectra of peptides in LPS and effects of peptides on reactive oxygen species (ROS) production. (A) Secondary structures of WIK-10, WIR-10, WIK-14, and WIKE-14 peptides (50 µM) in 1 µg/mL Pseudomonas aeruginosa LPS. (B) RAW 264.7 cells were pre-incubated in the absence or presence of peptides (8 µM) for 30 min and treated with or without LPS (100 ng/mL). After 24 h incubation, the cells were treated using H2DCFDA and incubated for […], following which the fluorescent cells were observed under a fluorescence microscope.
RAW 264.7 cells (1 × 10^6 cells/mL) plated in a 24-well plate were pre-cultured for 24 h. Peptides in RPMI-1640 medium were then pretreated to cells for 30 min and P. aeruginosa LPS (100 ng/mL) was added, followed by additional incubation for 24 h. Control cells are not treated with peptides and LPS. H2DCFDA (10 µL, final concentration 10 µM) was treated to the cells, followed by incubation for 30 min in a CO2 incubator. The cells washed with cold-PBS buffer were then observed using a fluorescence microscope (OPTINIT KCS3-160S; Korea Lab Tech, Seongnam, Gyeonggi-do, Republic of Korea).

[4] = tested on: binding between LPS and RAW 264.7 cells; assay: Inhibition of FITC-LPS binding to RAW 264.7 cells (fluorescence microscopy and flow cytometry); assay type: cell-based, murine; conditions: FITC-LPS 1 µg/mL, fluorescence microscopy, dose-dependent
Method: Figure 4 Inhibitory effects of peptides on binding between LPS and RAW 264.7 cells. Fluorescein isothiocyanate-labeled LPS and peptides were incubated for 12 h with RAW 264.7 cells, and cells were washed with PBS, followed by observation using fluorescence microscopy.
RAW 264.7 cells cultured in Roswell Park Memorial Institute Medium (RPMI)-1640 containing 10% fetal bovine serum (FBS) were aliquoted to 1 × 10^6 cells/mL in a 24-well plate, and cultured at 37 °C, 5% CO2 incubator for 24 h. Each well was treated with 1 µg/mL of FITC-attached LPS. After 1 h, peptides were added to the wells at the indicated concentrations. After incubation for 8 h, the cells were washed with cold-PBS, observed under a fluorescence microscope, and measured using flow cytometry (Beckman Coulter CytoFlex, Brea, CA, USA).

[5] = tested on: RAW 264.7 cells; assay: Nitric oxide production in LPS-stimulated RAW 264.7 cells (Griess); assay type: cell-based, murine; conditions: RAW 264.7, P. aeruginosa LPS 1 µg/mL, peptides 32 µM, 24 h, Griess reagent
Method: (§1) Figure 6 Anti-inflammatory effects of peptides in RAW 264.7 cells. (A) Secreted nitric oxide and tumor necrosis factor-α were measured from the supernatants after 24 h of LPS-stimulation with peptides (32 µM). (B) mRNA expression of RAW 264.7 cells with peptides. IL-6, interleukin-6, TNF- α, tumor necrosis factor-α; GAPDH, Glyceraldehyde 3-phosphate dehydrogenase. 1: control, 2: LPS, 3: LPS+Polymyxin B, 4: LPS+KIW-10, 5: LPS+WIK-10, 6: LPS+RIW-10, 7: LPS+WIR-10, 8: LPS+KIW-14, 9: LPS+WIK-14, 10: LPS+WIKE-14.
The murine macrophage cell RAW 264.7 was grown RPMI-1640 medium supplemented with 10% FBS and then plated at a density of 1 × 10^6 cells/mL in a 24-well microplate. After incubation for 24 h, the cells were stimulated with P. aeruginosa LPS (1 µg/mL), followed by further incubation for 1 h. Peptides were incubated for 24 h. Nitrite was measured by adding 100 µL of cell culture extract to 100 µL of Griess reagent (1% sulfanilamide and 0.1% naphthylenediamine in 5% phosphoric acid). The nitrite concentrations were calculated by comparing the absorbance of sodium nitrite standard solutions. The optical density was evaluated at 550 nm in a microplate reader (Molecular Devices, Emax, CA, USA). TNF-α levels in culture supernatants were analyzed using the R&D system TNF-α EASIA kit, Minneapolis, MN, USA). The developed color was determined by measuring the OD at 490 nm in a microplate reader.

[6] = tested on: RAW 264.7 cells; assay: Cytokine mRNA (IL-6, TNF-α) in LPS-stimulated RAW 264.7 cells (RT-PCR); assay type: cell-based, murine; conditions: RAW 264.7, LPS 1 μg/mL, 32 μM peptide, 8 h, compared to only LPS-treated cells
Method: as §1
RAW 264.7 cells were cultured in RPMI-1640 medium containing 10% FBS, and then seeded to 5 × 10^6 cells/mL in a 6-well plate and cultured at 37 °C, 5% CO2 incubator for 24 h. Each well was treated with 1 μg/mL of LPS; after 1 h, 32 μM of each peptide was added and incubated for 8 h. Cells were collected, and total RNA was isolated using TRIzol reagent (Thermo Fisher Scientific, Waltham, MA, USA). 5′-[…]-3′ and 5′-[…]-3′ as Glyceraldehyde 3-phosphate dehydrogenase primers, 5′-[…]-3′ and 5′-[…]-3′ as IL-6 primers, and 5′-[…]-3′ and 5′-[…]-3′ as TNF-α primers were used for reverse transcription-polymerase chain reaction (RT-PCR). The PCR products generated using the Maxime RT-PCR premix kit (IntronBio, Seongnam, Gyeonggi-do, Republic of Korea) were confirmed using electrophoresis.

| Substance | GM, geometric mean of minimum inhibitory concentration values [1] [µM] | further results |
| --- | --- | --- |
| WIKKIWKKIIKEIK-NH2 [WIKE-14] | 8 ± 0.8 | toxicity in lung tissue cells, peptide alone [2]: non-toxic |
| WIRRIWRRIR-NH2 [WIR-10] | 3 ± 0.2 | – |
| WIKKIWKKIK-NH2 [WIK-10] | 6.5 ± 0.8 | – |
| KKIIKKIIKKIWKW-NH2 [KIW-14] | 2.6 ± 1.2 | – |
| melittin | – | ROS-producing level of LPS-treated cells [3]: significantly reduced |
| KKIIKKIWKW-NH2 [KIW-10] | 11 ± 1 | – |
| KKIWKKWIKKIIKI-NH2 [KWI-14] | 2.6 ± 0.8 | – |
| polymyxin B | – | ROS-producing level of LPS-treated cells [3]: significantly reduced; FITC fluorescence signals in RAW 264.7 cells (FITC-LPS binding) [4]: dramatically decreased; LPS-induced NO secretion [5]: inhibited; expression levels of IL-6 and TNF-α (mRNA) [6]: clearly decreased |
| RRIIRRIWRW-NH2 [RIW-10] | 8.5 ± 0.8 | – |
| KKIWKKWIKI-NH2 [KWI-10] | 10.5 ± 1.2 | – |
| RRIWRRWIRI-NH2 [RWI-10] | 7 ± 1.2 | – |
| WIKKIWKKIIKKIK-NH2 [WIK-14] | 2.1 ± 0.4 | toxicity in lung tissue cells, peptide alone [2]: toxic |
